Laboratory results as given in patent US7595400B2, “Process for the preparation of hexacyclic compounds” (Chugai Seiyaku Kabushiki Kaisha, priority 2003, dated 2009).

Key:
NCI-H460 (NSCLC) = experiment: Anti-proliferative activity assay (WST-8), NCI-H460; type: cell-based, human; conditions: NCI-H460 non small cell lung cancer cells, 4 days incubation
Method: (§1) The Antiproliferative activity assay was carried out as follows. A single suspension of tumor cells was inoculated to the serially diluted 96-well microtestplate. Then the testplate was incubated in the 5% CO2 ambience at 37° C. for 4 days (2-3×10^3 cells/well). The degree of cell growth in a monolayer was measured by using WST-8 (Dojindo, Japan). IC50 values of drugs against tumor cells were calculated as the concentration of drug yielding 50% OD of the control growth. The IC50 value measures the drug concentration for 50% of the growth of tumor cells in vitro as compared to the control.
(§2) Anti-tumor activities of hexacyclic compounds of formula [1] against in vitro growth of human tumor cell lines, HCT116 and DLD-1 of colorectal cancer (CRC) and QG56 and NCI-H460 of non small cell lung cancer (NSCLC) are shown in Table 1. These cell lines are commercially available via the American Type Culture Collection (ATTC).

QG56 (NSCLC) = experiment: Anti-proliferative activity assay (WST-8), QG56; type: cell-based, human; conditions: QG56 non small cell lung cancer cells, 4 days incubation
Method: as §1, §2

HCT116 (CRC) = experiment: Anti-proliferative activity assay (WST-8), HCT116; type: cell-based, human; conditions: HCT116 colorectal cancer cells, 4 days incubation
Method: as §1, §2

DLD-1 (CRC) = experiment: Anti-proliferative activity assay (WST-8), DLD-1; type: cell-based, human; conditions: DLD-1 colorectal cancer cells, 4 days incubation
Method: as §1, §2

[1] = converted to the inactive carboxylate form; cited from earlier work

Compound | IC50 (NCI-H460 (NSCLC)) | IC50 (QG56 (NSCLC)) | IC50 (HCT116 (CRC)) | IC50 (DLD-1 (CRC)) | half-life in plasma [1]
CCc1c2c(nc3ccc(O)cc13)-c1cc3c(c(=O)n1C2)COC(=O)[C@]3(O)CC [SN-38, 7-ethyl-10-hydroxycamptothecin] | 21 nM | 27 nM | 6.9 nM | 53 nM | 
CC[C@@]1(O)C(=O)OCc2c1cc1n(c2=O)Cc2cc3ccccc3nc2-1 [camptothecin] |  |  |  |  | less than 30 min
